From publication PMC7955127, “Preclinical small molecule WEHI-7326 overcomes drug resistance and elicits response in patient-derived xenograft models of human treatment-refractory tumors” (Cell Death & Disease, 2021)

Assay: Acute toxicity study, single intravenous dose (non-GLP)
Assay type: in vivo, Sprague-Dawley rats
Details: for PT / Phosphate / Potassium / Protein (Total) / RBC / Retc. / Sodium / Triglycerides / Urea / WBC / Multifocal red petechiae on all lung lobes (incidence at necropsy) / Smaller right teste (incidence at necropsy) / Testes noted to have a soft consistency (incidence at necropsy) / White streaks though one or both testes (incidence at necropsy) / ALP / ALT / APTT / AST / Albumin / Albumin/Globulin / Bilirubin (Total) / Calcium / Chloride / Cholesterol / Creatinine / Globulin / Glucose / HCT / HGB / MCH / MCHC / MCV / PLT: day 15; for PT / Phosphate / Potassium / Protein (Total) / RBC / Retc. / Sodium / Triglycerides / Urea / WBC / ALP / ALT / APTT / AST / Albumin / Albumin/Globulin / Bilirubin (Total) / Calcium / Chloride / Cholesterol / Creatinine / Globulin / Glucose / HCT / HGB / MCH / MCHC / MCV / PLT: mean ± SD
Method: This acute toxicity study included a satellite group for toxicokinetic assessment. The toxicity study was comprised of 12 male and 12 female rats, which were allocated into four groups of three males and three females. The toxicity of the test substance, WEHI-7326 dihydrochloride (referred to as WEHI-7326 from here), was tested at three dose concentrations of 5 mg/kg, 15 mg/kg and 30 mg/kg administered as a single dose via intravenous tail vein injection. The vehicle control, D-(+)-Glucose, was formulated at 5% w/v and administered per the above regime. On Study Day 15, all animals were terminated with blood collected for biochemistry, haematology and coagulation analysis before undergoing gross necropsy by a US board certified veterinary pathologist. The toxicokinetic satellite group comprised of 30 male rats which were allocated into four groups of three males in the vehicle control group and nine males in each of the three treatment groups. All treatment group animals were then allocated into three subgroups (A, B and C) and bled pre-dose, then 2min, 10min, 0.5h, 2h, 6h, 12h and 24h post-dose. All vehicle control group animals weren’t allocated to a specific subgroup but were bled at 10min and 12h post-dose. All TK animals were then terminated after the final blood collection. Dosing was suspended on Study Day 1 for both the Toxicity and Toxicokinetic Study animals following adverse reactions which lead to the early termination of two animals (one male treated with mid-dose WEHI-7326 from the Toxicity Study and one male treated with high-dose WEHI-7326 from the Toxicokinetic Study) approximately 5-10 minutes post-treatment. After consultation with the Sponsor, the following changes were made to the Study Design:
At the revised high dose of 20mg/kg, all male rats had to be terminated prematurely also due to reaching their body weight loss endpoint of >10% loss. […] Significant findings in clinical pathology outcomes were considered incidental and unrelated to test article treatment. The majority of macroscopic findings at necropsy were also considered to be incidental, however the findings of white streaks through the testes of male animals treated with WEHI-7326 may be related to treatment. Body weights were measured once prior to dose administration, then daily for the duration of the study and at termination. Clinical observations were performed on a daily basis.
The study followed test guideline OECD No. 420 (2001) “Acute Oral Toxicity - Fixed Dose Procedure” with the exception that the route of administration was intravenous (i.v.).

[1] = female rats, 20 mg/kg single i.v.
[2] = male rats, 15 mg/kg single i.v.
[3] = male rats, 20 mg/kg single i.v.

COc1ccc(CNc2nc(NCc3ccc(CN)cc3)nc(NN3CC(=O)NC3=O)n2)cc1 [WEHI-7326]
PT [1]: 21.8 ± 0.8 s | Phosphate [1]: 1.85 ± 0.15 mM | Potassium [1]: 4.72 ± 0.20 mM | Protein (Total) [1]: 64.3 ± 1.2 g/L | RBC [1]: 7.27 ± 0.15 10^12/L | Retc. [1]: 4.75 ± 1.82% | Sodium [1]: 139 ± 1 mM | Triglycerides [1]: 0.96 ± 0.50 mM | Urea [1]: 6.37 ± 0.39 mM | WBC [1]: 7.85 ± 1.07 10^9/L | Body weight loss >10% (termination required) (incidence) (male rats, 5 mg/kg single i.v.): 0/3 | Discharge from nose on study day 2 (incidence) (male rats, 5 mg/kg single i.v.): 0/3 | Hunched posture with half shut eyes on Study Day 3 (incidence) (male rats, 5 mg/kg single i.v.): 0/3 | Labored breathing, severely affected gait and lack of response to stimuli post-dose (termination required) (incidence) (male rats, 5 mg/kg single i.v.): 0/3 | Mild impairment of gait and lack of response to stimuli postdose, resolved 2 hours post treatment (incidence) (male rats, 5 mg/kg single i.v.): 0/3 | No remarkable observations (incidence) (male rats, 5 mg/kg single i.v.): 3/3 | Red stained right eye on study day 2 and 3 (incidence) (male rats, 5 mg/kg single i.v.): 0/3 | Multifocal red petechiae on all lung lobes (incidence at necropsy) (male rats, 5 mg/kg single i.v.): 0/3 | Smaller right teste (incidence at necropsy) (male rats, 5 mg/kg single i.v.): 1/3 | Testes noted to have a soft consistency (incidence at necropsy) (male rats, 5 mg/kg single i.v.): 0/3 | White streaks though one or both testes (incidence at necropsy) (male rats, 5 mg/kg single i.v.): 3/3 | ALP (male rats, 5 mg/kg single i.v.): 528 ± 112 U/L | ALT (male rats, 5 mg/kg single i.v.): 66 ± 17 U/L | APTT (male rats, 5 mg/kg single i.v.): 16.8 ± 1.3 s | AST (male rats, 5 mg/kg single i.v.): 114 ± 16 U/L | Albumin (male rats, 5 mg/kg single i.v.): 36.6 ± 4.1 g/L | Albumin/Globulin (male rats, 5 mg/kg single i.v.): 1.4 ± 0.2 Ratio | Bilirubin (Total) (male rats, 5 mg/kg single i.v.): 0.4 ± 0.1 µM | Calcium (male rats, 5 mg/kg single i.v.): 2.67 ± 0.12 mM | Chloride (male rats, 5 mg/kg single i.v.): 102.9 ± 5.3 mM | Cholesterol (male rats, 5 mg/kg single i.v.): 1.81 ± 0.18 mM | Creatinine (male rats, 5 mg/kg single i.v.): 25 ± 5 µM | Globulin (male rats, 5 mg/kg single i.v.): 25.3 ± 1.6 g/L | Glucose (male rats, 5 mg/kg single i.v.): 7.70 ± 0.82 mM | HCT (male rats, 5 mg/kg single i.v.): 0.52 ± 0.01 L/L | HGB (male rats, 5 mg/kg single i.v.): 151.7 ± 3.1 g/L | MCH (male rats, 5 mg/kg single i.v.): 19.70 ± 0.85 pg | MCHC (male rats, 5 mg/kg single i.v.): 294.0 ± 5.0 g/L | MCV (male rats, 5 mg/kg single i.v.): 67.2 ± 3.5 fL | PLT (male rats, 5 mg/kg single i.v.): 1025.0 ± 167.5 10^9/L | PT (male rats, 5 mg/kg single i.v.): 19.5 ± 0.3 s | Phosphate (male rats, 5 mg/kg single i.v.): 2.07 ± 0.24 mM | Potassium (male rats, 5 mg/kg single i.v.): 5.23 ± 0.33 mM | Protein (Total) (male rats, 5 mg/kg single i.v.): 61.9 ± 5.8 g/L | RBC (male rats, 5 mg/kg single i.v.): 7.71 ± 0.45 10^12/L | Retc. (male rats, 5 mg/kg single i.v.): 4.57 ± 1.00% | Sodium (male rats, 5 mg/kg single i.v.): 143 ± 10 mM | Triglycerides (male rats, 5 mg/kg single i.v.): 1.65 ± 0.18 mM | Urea (male rats, 5 mg/kg single i.v.): 6.11 ± 0.96 mM | WBC (male rats, 5 mg/kg single i.v.): 14.83 ± 1.08 10^9/L | Body weight loss >10% (termination required) (incidence) [2]: 2/4 | Discharge from nose on study day 2 (incidence) [2]: 0/4 | Hunched posture with half shut eyes on Study Day 3 (incidence) [2]: 0/4 | Labored breathing, severely affected gait and lack of response to stimuli post-dose (termination required) (incidence) [2]: 1/4 | Mild impairment of gait and lack of response to stimuli postdose, resolved 2 hours post treatment (incidence) [2]: 0/4 | No remarkable observations (incidence) [2]: 1/4 | Red stained right eye on study day 2 and 3 (incidence) [2]: 1/4 | Multifocal red petechiae on all lung lobes (incidence at necropsy) [2]: 0/1 | Smaller right teste (incidence at necropsy) [2]: 0/1 | Testes noted to have a soft consistency (incidence at necropsy) [2]: 1/1 | White streaks though one or both testes (incidence at necropsy) [2]: 1/1 | ALP [2]: 306 ± 0 U/L | ALT [2]: 61 ± 0 U/L | APTT [2]: 20.2 ± 0.0 s | AST [2]: 108 ± 0 U/L | Albumin [2]: 32.3 ± 0 g/L | Albumin/Globulin [2]: 1.3 ± 0 Ratio | Bilirubin (Total) [2]: 0.9 ± 0 µM | Calcium [2]: 2.50 ± 0 mM | Chloride [2]: 100.4 ± 0 mM | Cholesterol [2]: 1.65 ± 0 mM | Creatinine [2]: 23 ± 0 µM | Globulin [2]: 25.8 ± 0 g/L | Glucose [2]: 7.13 ± 0 mM | HCT [2]: 0.46 ± 0.00 L/L | HGB [2]: 138.0 ± 0.0 g/L | MCH [2]: 18.00 ± 0.00 pg | MCHC [2]: 297.0 ± 0.0 g/L | MCV [2]: 60.40 ± 0.0 fL | PLT [2]: 1075 ± 0.0 10^9/L | PT [2]: 18.4 ± 0.0 s | Phosphate [2]: 2.07 ± 0 mM | Potassium [2]: 4.78 ± 0 mM | Protein (Total) [2]: 58.1 ± 0 g/L | RBC [2]: 7.68 ± 0.00 10^12/L | Retc. [2]: 2.70 ± 0.00% | Sodium [2]: 138 ± 0 mM | Triglycerides [2]: 0.97 ± 0 mM | Urea [2]: 4.02 ± 0 mM | WBC [2]: 10.89 ± 0.00 10^9/L | Body weight loss >10% (termination required) (incidence) [3]: 3/3 | Discharge from nose on study day 2 (incidence) [3]: 3/3 | Hunched posture with half shut eyes on Study Day 3 (incidence) [3]: 3/3 | Labored breathing, severely affected gait and lack of response to stimuli post-dose (termination required) (incidence) [3]: 0/3 | Mild impairment of gait and lack of response to stimuli postdose, resolved 2 hours post treatment (incidence) [3]: 3/3 | No remarkable observations (incidence) [3]: 0/3 | Red stained right eye on study day 2 and 3 (incidence) [3]: 0/3 | Multifocal red petechiae on all lung lobes (incidence at necropsy) [3]: 0/0 | Smaller right teste (incidence at necropsy) [3]: 0/0 | Testes noted to have a soft consistency (incidence at necropsy) [3]: 0/0 | White streaks though one or both testes (incidence at necropsy) [3]: 0/0
